# Test results published in US7015218B1, “Amide compounds and medicinal use thereof” (Mitsubishi Pharma Corporation, priority 1999, dated 2006).
# System: DBA/1J mouse
# Assay: Type II collagen induced arthritis in DBA/1J mouse
# Type: in vivo
# Protocol: An emulsion was prepared by mixing bovine type II collagen (100–200 μg, purchased from Collagen Gizyutsu Kensyukai) with Freund's complete adjuvant (Sigma) containing dead tubercle bacillus H37Ra was given to 6–7 week-old male DBA/1J mice (Charles River Japan) subcutaneously from the root of the tail for immunization twice at 3 week intervals, thereby developing arthritis. The compound of the present invention or a pharmaceutically acceptable salt thereof was suspended or dissolved in 0.5% hydroxypropylmethylcellulose and orally administered repeatedly at the dose of 0.01–100 mg/kg body weight using an oral sound for 6 weeks from the first immunization. This model was evaluated for the symptoms of arthritis in the four limbs according to the following criteria in 0 to 4 scores. The arthritis score of each mouse was expressed by the total of the scores of the four limbs (maximum:16 points), and when the total score was 1 or more, the onset of arthritis was acknowledged.
# The thickness of the four limbs of the mouse was measured with vernier calipers and the total score of the four limbs was used as an index of arthritis. Using a soft X-ray photography (OHMIC co.), the four limbs were X rayed to evaluate the level of destruction of the joints. […]
smiles,measurement,setting,value
Cc1c(C(=O)Nc2ccc(C(F)(F)F)cc2)cnn1-c1ccc(F)cc1 [1-(4-fluorophenyl)-N-(4-trifluoromethylphenyl)-5-methylpyrazole-4-carboxamide],"improvement of severity of developed arthritis, swelling of four limbs or joint destruction",repeat oral administration at 10 mg/kg body weight,did not improve
same,death incidence,repeat oral administration at 30 mg/kg body weight,death incidence was confirmed
